Values quoted from earlier work as cited in US20230346696A1, “SPRAY DRIED LOW HYGROSCOPICITY ACTIVE POWDER COMPOSITIONS” (PHILIP MORRIS PRODUCTS S.A., priority 2020, published 2023).

Details: 25° C.

For `OC[C@H]1O[C@H](O[C@H]2O[C@H](CO)[C@@H](O)[C@H](O)[C@H]2O)[C@H](O)[C@@H](O)[C@@H]1O` [trehalose], the solubility is given as 69 g/100 ml water.
